Experimental data from patent publication US9295679B2, “Prodrugs of C-17-heteroaryl steroidal CYP17 inhibitors/antiandrogens: synthesis, in vitro biological activities, pharmacokinetics and antitumor activity” (University of Maryland, Baltimore, priority 2008, dated 2016).
“Also recorded” adds a separate entry of the source.

Columns and labels:
[1] = test system: PC-3; assay: MTT cell viability assay, PC-3; format: cell-based; conditions: for GI90 / GI50: MTT, 96 hours exposure
Description: Cells were grown as a monolayer in a humidified incubator (5% CO2) at 37° C. To determine the effect of the compounds on cell proliferation, cells were plated (2500 cells/well) in 96-well cell culture dishes (Corning, Inc. Corning, N.Y.). […] The cells were then allowed to grow in the presence of the drugs for 96 hours. […] Experiments were carried out three times with six replicates per dose per experiment (n=18). […] Combination index (CI) was calculated as previously described^44. CI values less than 1 are considered synergistic.

[2] = test system: DU-145; assay: MTT cell viability assay, DU-145; format: cell-based; conditions: for GI90 / GI50: DU-145, MTT, 96 hours exposure
Description: (§1) All cell lines were obtained from American Type Culture Collection (Rockville, Md.) and maintained in RPMI 1640 media supplemented with 10% fetal bovine serum and 5% penicillin/streptomycin solution. Cells were grown as a monolayer in a humidified incubator (5% CO2) at 37° C. To determine the effect of the compounds on cell proliferation, cells were plated (2500 cells/well) in 96-well cell culture dishes (Corning, Inc. Corning, N.Y.). After a 24 hr attachment period, media was replaced with fresh media containing compounds (0.01 μM-100 μM) or vehicle (95% ethanol). The cells were then allowed to grow in the presence of the drugs for 96 hours. After 96 hours, relative cell viability was assessed using the MTT reagent (3-(4,5-dimethylthiazol-2-yl)-2,5-diphenyltetrazolium bromide) as described in Patel, et al. 2004^43. Experiments were carried out three times with six replicates per dose per experiment (n=18). Results were plotted using the average of each dose over all three experiments and fitted with a best-fit sigmoidal dose response variable slope curve using GraphPad Prism 4.01 (GraphPad Software, Inc.). […] Combination index (CI) was calculated as previously described^44. CI values less than 1 are considered synergistic.

[3] = test system: LNCaP; assay: MTT cell viability assay, LNCaP; format: cell-based, human; conditions: 96 hours exposure; for GI50: Homo sapiens
Description: as §1

[4] = given clinically as the prodrug abiraterone acetate; cited from earlier work
[5] = Oral bioavailability in rat; conditions: in vivo
[6] = test system: PC-3 cells; assay: Microarray global gene expression in PC-3 cells; format: cell-based; conditions: 20 μM, 24 hrs
Description: After 24 hour exposure to the agent, total RNA was isolated using the Qiagen RNeasy-Mini Kit following the manufacturer's protocol. Experiments were carried out in duplicate, with triplicate samples (dosed independently on 3 different days) from each experiment pooled for analysis on a single chip. Samples were hybridized to a GeneChip® Human Genome Focus Array (Affymetrix Inc., U.S.A.) and analyzed using an Affymetrix Genechip® Scanner 3000 according to the manufacturer's protocol. Gene ontologies were identified using the online Database for Annotation, Visualization, and Integrated Discovery (DAVID) provided by the National Institute of Allergy and Infectious Diseases and the National Institute of Health. […] Stringent criteria of a minimum EASE/P-Value threshold of 0.001 and a gene count threshold of 5 were used to identify altered gene ontologies.

[7] = test system: PC-3 cells; assay: Real-time PCR (qRT-PCR) of stress response and cell cycle genes in PC-3 cells; format: cell-based; conditions: 20 μM, 24 hr
Description: Cells were treated, lysed and RNA collected and quantified using the same method outlined above. Cells were dosed independently on three separate days (n=3). 1 μg of total RNA was converted to cDNA using ReactionReady™ First Strand cDNA Synthesis kit (SuperArray Bioscience Corp.; Frederick, Md.) following the manufacturer's protocol. 50 ng of template cDNA was then used in subsequent real-time PCR (qRT-PCR) reactions. Template was combined with target gene specific or β-actin control RT^2 PCR Primer Sets, RT^2 Real-Time™ SYBR Green/Rox Master Mix (SuperArray Bioscience Corp.), and ddH2O for a final reaction volume of 25 μL and run on a 7900HT Fast Real-Time PCR system (Applied Biosystems; Foster City, Calif.) following the manufacturer's protocol. Fold changes were calculated using the ΔΔCt method as recommended by the manufacture's protocol.

[8] = test system: PC-3 cells; assay: Western blot of ERSR related proteins in PC-3 cells; format: cell-based
Description: Protein was isolated, subjected to SDS-PAGE, transferred and imaged as previously described^45. All primary antibodies were purchased from Cell Signaling (Danvers, Mass.). Quantitation of relative protein expression was determined via densitometry using the software ImageQuant 5.0 (Molecular Dynamics) with each protein normalized to its respective loading control. Results represent the average of at least three independent experiments, with representative blots shown.

[9] = test system: PC-3 cells; assay: Cell cycle analysis by flow cytometry in synchronized PC-3 cells; format: cell-based; conditions: 20 μM
Description: Cells were synchronized in the G1/G0 phase by maintaining them in 0.2% FBS-containing media for 96 hours. After starvation, media was replaced with normal growth media (10% FBS) containing vehicle (95% ethanol) or 20 μM VN/124-1 for 12, 18, and 24 hours. At each timepoint, cells were fixed in 70% ethanol at −20° C. for at least 24 hours. Fixed cells were then incubated with 1 mL propidium iodide (PI) staining buffer (1 mg/ml PI, 0.1% Triton-X, and 10 μg/ml RNase A dissolved in PBS) for 1 hour at room temperature and DNA content was measured by flow cytometry analysis using a FACSort flow cytometer (Becton Dickinson, San Jose, Calif.); 15,000 events were analyzed for each sample. ModFit LT version 3.1 (Verity Software House Ind., ME) was used to analyze cell cycle distribution.

[10] = test system: PC-3 cells; assay: Ca2+ transients in PC-3 cells (Fluo-3AM); format: cell-based; conditions: 20 μM; for transient rise in [Ca2+]i, mean ΔF/Fo: Fluo-3AM
Description: (§2) PC-3 Cells were loaded with either fura-2 or fluo-3 indicator by incubation with 2 μM fura-2/AM or 2 μM fluo-3/AM in RPMI 1640 medium containing 10% fetal bovine serum for >60 min at room temperature. During experiments, the coverslips were mounted in a flow chamber and superfused with oxygenated Locke solution containing (in mM): 10 glucose, 136 NaCl, 5.6 KCl, 1.2 NaH2PO4, 14.3 NaHCO3, 1.2 MgCl2, and 2.2 CaCl2, pH 7.4, at room temperature (22-24° C.).
(§3) Cells loaded with fura-2 were placed in a perfusion chamber mounted on an inverted microscope (TE200; Nikon, Tokyo, Japan) equipped with a UV-transmitting objective (SuperFluor, 40×, N.A. 1.4, Nikon). Fura-2 was alternately excited by 340 nm and 380 nm light from monochrometers (Deltascan Illumination System, Photonic Technology International (PTI), South Brunswick, N.J.) and fura-2 emission was passed through a 515 nm longpass filter before detection by a cooled CCD camera (Retiga 2000R, Q-Imaging, Burnaby, Canada). For measurement of Ca^2+ transients in individual cells, coverslips with fluo-3 loaded cells were excited by the output of a 100 W mercury arc lamp that passed through a 480 nm bandpass filter (30 nm bandwidth). Fluorescence emission was passed through a 515 nm longpass filter before capture by a cooled CCD camera (Retiga 2000R, Q-Imaging). Image acquisition was performed with QCapture Pro (Q-Imaging) and analysis was performed with ImageJ (U.S. National Institutes of Health, Bethesda, Md., USA).
Fluo-3 Ca^2+ indicator measurements are reported as the fractional change in fluorescence intensity relative to baseline (ΔF/F0), which was determined as follows. Within a temporal sequence of fluorescence images, a region of interest (ROI) was drawn around each cell to be analyzed. The fluorescence signal from each cell was calculated as the pixel-averaged intensity within each ROI. In these experiments, a slight downward drift in baseline was typically observed, which was principally attributable to photo-bleaching of the indicator. […]

[11] = test system: PC-3 cells; assay: Absolute [Ca2+]i in PC-3 cells (Fura-2AM); format: cell-based; conditions: for average [Ca2+]i: Fura-2AM, control 36.49 nM
Description: as §2, §3
Fluo-3 Ca^2+ indicator measurements are reported as the fractional change in fluorescence intensity relative to baseline (ΔF/F0), which was determined as follows. Within a temporal sequence of fluorescence images, a region of interest (ROI) was drawn around each cell to be analyzed. The fluorescence signal from each cell was calculated as the pixel-averaged intensity within each ROI. In these experiments, a slight downward drift in baseline was typically observed, which was principally attributable to photo-bleaching of the indicator. In such cases, the drift was always well fit by a low-amplitude single-exponential decay. The fitted baseline value (F0) at every time point was then used to calculate ΔF/F0. ΔF/F0 values are reported as mean±SE. For fura-2 measurements, [Ca^2+]i was derived using the ratio method of Grynkiewicz et al.^46

[12] = mice, s.c. 50 mg/kg, cited from earlier work
[13] = test system: androgen-dependent LAPC4 human prostate tumor xenograft; conditions: cited from earlier work

C[C@]12CC[C@H](O)CC1=CC[C@@H]1[C@@H]2CC[C@]2(C)C(c3cccnc3)=CC[C@@H]12 [Abiraterone, abiraterone, reference compound]
GI90 [1]: >100 µM
GI90 [2]: >100 µM
GI90 [3]: 25.12 µM
peak plasma concentrations [4]: below 1 μM

C[C@]12CC[C@H](O)CC1=CC[C@@H]1[C@@H]2CC[C@]2(C)C(n3cnc4ccccc43)=CC[C@@H]12 [Compound 5, 3β-hydroxy-17-(1H-benzimidazole-1-yl)androsta-5,16-diene]
bioavailability [5]: ~10%
GI50 ([1]; Homo sapiens): 7.82 µM
GI90 [1]: 18.62 µM
GI90 [2]: 15.95 µM
GI50 ([2]; Homo sapiens): 7.55 µM
GI90 [3]: 31.99 µM
GI50 [3]: 3.15 µM
down-regulated gene ontologies [6]: associated with the cell cycle, especially S-phase (DNA replication)
most enriched up-regulated gene ontologies [6]: those relating to stress and metabolism, in particular amino acid metabolism
S100P calcium binding protein gene expression ([6]; validated by qRT-PCR): most highly up-regulated gene
CHOP gene expression [7]: strongly up-regulated
activating transcription factor 4 (ATF4) gene expression [7]: up-regulated
asparagines synthetase (ASNS) gene expression [7]: up-regulated
cyclin D1 mRNA levels [7]: not affected
cyclin E2 mRNA [7]: significantly reduced
phosphorylation of eIF2α ([8]; 20 μM, 6 and 24 hours, PC-3): induced the phosphorylation of eIF2α
cyclin D1 protein ([8]; PC-3, after 24 hrs): down-regulation of cyclin D1 protein significantly
exit from G1 phase of the cell cycle [9]: prevent the exit from G1 phase
transient rise in [Ca2+]i, mean ΔF/Fo ([10]; extracellular calcium present): 0.613
transient rise in [Ca2+]i, mean ΔF/Fo ([10]; extracellular calcium removed): 0.967
Ca2+ transient after depletion of ER calcium stores ([10]; pretreatment with SERCA inhibitor CPA): completely abolished
effect on [Ca2+]i ([11]; 1 μM Compound 5, 2 hours): did not have a significant effect
average [Ca2+]i ([11]; 5 μM, 2 hours): 79.13 nM
average [Ca2+]i ([11]; 10 μM, 2 hours): 96.63 nM
average [Ca2+]i ([11]; 20 μM, 2 hours): 79.89 nM
detectability in plasma at 8 hours [12]: neither was detectable
peak plasma levels [12]: 16.82 ng/mL
reduction in the mean final tumor volume compared with controls ([13]; 50 mg/kg/twice daily, P=0.00065): 93.8%
effect on growth of LAPC4 tumor xenograft ([13]; Compound 6 at 0.15 mmol/kg twice daily): very effective; also recorded: marked suppression

C[C@]12CCC(=O)C=C1CC[C@@H]1[C@@H]2CC[C@]2(C)C(n3cnc4ccccc43)=CC[C@@H]12 [Compound 6, 17-(1H-benzimidazole-1-yl)androsta-4,16-diene-3-one]
GI90 [1]: 8.07 µM
GI90 [2]: 15.53 µM
GI90 [3]: 13.46 µM
terminal half-lives ([12]; plasma): 39.93 min
detectability in plasma at 8 hours [12]: neither was detectable
peak plasma levels [12]: 5.15 ng/mL

C[C@]12CC[C@H](O)CC1=CC[C@@H]1[C@@H]2CC[C@]2(C)C(n3cncn3)=CC[C@@H]12 [Compound 16, 3β-Hydroxy-17-(1H-1,2,4-triazol-1-yl)androsta-5,16-diene]
GI50 ([1]; Homo sapiens): 2.91 µM
GI90 [1]: >100 µM
GI90 [2]: >100 µM
GI50 ([2]; Homo sapiens): 11 µM
GI90 [3]: >100 µM
GI50 [3]: 1.05 µM

C[C@]12CC[C@H](O)CC1=CC[C@@H]1[C@@H]2CC[C@]2(C)C(n3ccnc3)=CC[C@@H]12 [Compound 17, 3β-Hydroxy-17-(1H-imidazol-1-yl)androsta-5,16-diene]
GI50 ([1]; Homo sapiens): 1.86 µM
GI90 [1]: 30.41 µM
GI90 [2]: 31.62 µM
GI50 ([2]; Homo sapiens): 5.31 µM
GI90 [3]: 36.49 µM
GI50 [3]: 2.47 µM

C[C@]12CC[C@H](O)CC1=CC[C@@H]1[C@@H]2CC[C@]2(C)C(=O)CC[C@@H]12 [DHEA, dihydroandrosterone, reference compound]
fold less potent than Compound 5 in inhibiting PC-3 cells [1]: ~10 fold
GI50 [1]: 67.6 µM
GI90 [1]: >100 µM
GI50 [2]: > 100 µM
growth inhibitory activity against DU-145 cells ([2]; up to 100 μM): lacked any growth inhibitory activity
effect on the protein markers measured ([8]; 20 μM DHA, PC-3): no significant effect
effect on [Ca2+]i ([11]; 20 μM DHA, 2 hours): did not have a significant effect
